Each structure is given as a SMILES string.

Format in all cases: physicochemical
The nature of series [1]: Glass perforated plate rectification column (7.3 theoretical plates), trichloroethylene / n-butanol. Conditions: 1 hr.
Series [2] in a line: Vapor-liquid equilibrium still, trichloroethylene-n-butanol azeotrope with extractive distillation agent.
Series [3] in a line: Glass perforated plate rectification column (7.3 theoretical plates), trichloroethylene / n-butanol. The following applies: 2 hrs. An excerpt:
Dimethylsulfoxide gave a relative volatility of 1.28 after two hours of operation.
A solution comprising 300 grams of trichloroethylene and 15 grams of n-butanol was placed in the stillpot of a 7.3 theoretical plate glass perforated plate rectification column. […] After two hours operation, overhead and bottoms samples were collected and analysed. The overhead analysis was 98.2% trichloroethylene, 1.8% n-butanol and the bottoms analysis was 90.1% trichloroethylene, 9.9% n-butanol. This gives an average relative volatility of 1.28 for each theoretical plate.

Series [4] is described as follows: Vapor-liquid equilibrium still, trichloroethylene-isobutanol azeotrope with extractive distillation agent. The following applies: trichloroethylene from isobutanol, Table 5. An excerpt:
(§1) The data in Tables 2, 3, 5, 7, 8, 10 and 11 was obtained in a vapor-liquid equilibrium still. In every case, the starting mixture was the trichloroethylene-butanol azeotrope. The relative volatilities are listed for each of the agents.
Seventy grams of the trichloroethylene-isobutanol azeotrope and 30 grams of n-octanol were charged to the vapor-liquid equilibrium still and refluxed for five hours.

The nature of series [5]: Vapor-liquid equilibrium still, trichloroethylene-2-butanol azeotrope with extractive distillation agent.
From the text: as §1
Seventy grams of the trichloroethylene-2-butanol azeotrope and 30 grams of 2-methyl-1-pentanol were charged to the vapor-liquid equilibrium still and refluxed for two hours.

Series [6] is described as follows: Glass perforated plate rectification column (7.3 theoretical plates), trichloroethylene / 2-butanol. The text has this:
The overhead analysis was 98.2% trichloroethylene, 1.8% 2-butanol and the bottoms analysis was 65.6% trichloroethylene, 34.4% 2-butanol. This gives an average relative volatility of 1.59 for each theoretical plate.

Where [7] appears, read: Example 1, refluxed seven hours.

As to `C[S+](C)[O-]` [Dimethylsulfoxide], the “Relative Volatility (per theoretical plate)” value in series [1] is given as 1.22. In series [1] (bottoms), the “Weight % C2 H Cl3” value came out at 88.2% and the “Weight % n-Butanol” value stood at 11.8%. For the same compound, in series [1] (overhead), the “Weight % C2 H Cl3” value amounted to 96.9% and the “Weight % n-Butanol” value amounted to 3.1%. Besides, in series [2] (setting [7]), the “liquid composition, n-butanol” value amounted to 2.9%; the “liquid composition, trichloroethylene” value was 97.1%; the “vapor composition, n-butanol” value came to 2.3%; the “vapor composition, trichloroethylene” value is 97.7%. For the same compound, in series [2] (Example 1: 60 g azeotrope, 30 g agent, refluxed seven hours), the Relative Volatility came to 1.25. Further, the “Relative Volatility” value in series [2] (trichloroethylene from n-butanol, Table 2) is 1.3. In addition, the “Relative Volatility (average, per theoretical plate)” value in series [3] is reported as 1.28. Also, in series [3] (bottoms), the “Weight % C2 H Cl3” value was 90.1% and the “Weight % n-Butanol” value is listed as 9.9%. Moreover, in series [3] (overhead), the “Weight % C2 H Cl3” value is given as 98.2% and the “Weight % n-Butanol” value was determined as 1.8%.
For `CCCC(C)CO` (stereo not drawn) [2-Methyl-1-pentanol], the “Relative Volatility” value in series [4] was 2.2; in series [5] (Example 5: 70 g azeotrope, 30 g agent, refluxed two hours), 1.75; in series [5] (trichloroethylene from 2-butanol, Table 7), 1.6. In addition, the “liquid composition, 2-butanol” value in series [5] (Example 5, refluxed two hours) was 19.5%. Moreover, the “liquid composition, trichloroethylene” value in series [5] (Example 5, refluxed two hours) was determined as 80.5%. The “vapor composition, 2-butanol” value in series [5] (Example 5, refluxed two hours) was 11.9%. Besides, the “vapor composition, trichloroethylene” value in series [5] (Example 5, refluxed two hours) is reported as 88.1%. The “Relative Volatility (per theoretical plate)” value in series [6] (1 hr) came out at 1.49. Further, the “Relative Volatility (average, per theoretical plate)” value in series [6] (2 hrs) stood at 1.59. The “Weight % 2-Butanol” value is on record as 30.7% in series [6] (bottoms, 1 hr); 34.4% in series [6] (bottoms, 2 hrs); 2.4% in series [6] (overhead, 1 hr); 1.8% in series [6] (overhead, 2 hrs). For the same compound, the “Weight % C2 H Cl3” value in series [6] (bottoms, 1 hr) is given as 69.3%; in series [6] (bottoms, 2 hrs), 65.6%; in series [6] (overhead, 1 hr), 97.6%; in series [6] (overhead, 2 hrs) it was 98.2%.

Values taken from patent publication US5118392A, “Separation of trichloroethylene from a butyl alcohol by extractive distillation” (priority 1991, dated 1992).
